Patent US20260364027A1, “ENHANCER OF CARDIOLIPIN MOLECULAR SPECIES AS MITOCHONDRIAL COMPONENT” (WATANABE OYSTER LABORATORY, CO., LTD., priority 2022, published 2026)

Legend:
[1] = system: human renal proximal tubule cells (HK-2); test: Cardiolipin measurement by LC-MS/MS in HK-2 cells under oxidative stress stimulation (molecular species, total content, acyl groups); assay type: cell-based; conditions: oxidative stress (100 μM BSO) + DHMBA 250 or 500 μM
Description: FIG. 2 is an explanatory drawing for describing increase effects of DHMBA on CL molecular species under oxidative stress conditions. HK-2 cells were cultured with 100 μM BSO and 250 or 500 μM DHMBA, and then recovered and CL was measured using LC-MS/MS. Mean±SD (n=4).
FIG. 3 is an explanatory drawing for describing increase effects of DHMBA on total CL content under oxidative stress conditions. HK-2 cells were cultured with 100 μM BSO and 250 or 500 μM DHMBA, and then recovered and CL was measured using LC-MS/MS. Mean±SD (n=4).
FIG. 4 is an explanatory drawing for describing CL acyl group modification due to addition of DHMBA under oxidative stress conditions. HK-2 cells were cultured with 100 μM BSO and 250 or 500 μM DHMBA, and then recovered and CL was measured using LC-MS/MS. Mean±SD (n=4).
Human renal proximal tubule cells (HK-2) were subcultured in Dulbecco's Modified Eagle's Medium (DMEM, Nacalai Tesque) containing 10% fetal bovine serum and 1% penicillin-streptomycin at 37 °C in a 5% CO2 incubator. The following experiments were conducted using the oxidative stress inducer to confirm the cardiolipin increase effect of DHMBA on the oxidative stress.
HK-2 cells were seeded in a 6-well plate at a density of 1.0×10^5 cells/well and cultured for 24 hours. The cells were then divided into four groups with different stimulus conditions, and 2 mL thereof was added to each well.
The above-described four groups with the different stimulus conditions are as follows.
Control group (culture medium); oxidative stress group (final concentration 100 μM Oxidative Stress); oxidative stress+DHMBA 250 group (final concentration 100 μM Oxidative Stress+final concentration 250 μM DHMBA); and oxidative stress+DHMBA 500 group (final concentration 100 μM Oxidative Stress+final concentration 500 μM DHMBA).
After 24 hours, the cells were washed twice with phosphate-buffered saline (hereinafter referred to as PBS), and then 1 mL of PBS was added to each well and the cells were recovered using a scraper. In this cell suspension, 100 μL was used for protein quantification by a bicinchoninic acid (BCA) method. The protein concentration was used for correction of the cardiolipin concentration. The remaining cell suspension was centrifuged at 1,200 rpm for 5 minutes, the supernatant was removed, and then the precipitated cells were stored at −80 °C.
For the cardiolipin measurement, the total intracellular lipids were extracted in the same way as in the previous reports (Chen Z, et al. Metabolomics, 16: 115, 2020). […]
(§1) The data obtained were expressed as mean±standard deviation (SD), and statistical analysis was performed using JMP Pro 16 (SAS Institute Inc.). […]

PNPLA8 = test: qPCR expression of CL remodeling/degradation-related gene PNPLA8 in HK-2 cells under oxidative stress; assay type: cell-based, human; conditions: oxidative stress (100 μM BSO) + DHMBA 250 or 500 μM, 24 h, HK-2, β-actin corrected, control = 1
Description: (§2) FIG. 6 is an explanatory drawing for describing changes in the expression levels of genes related to CL remodeling and degradation of DHMBA under oxidative stress conditions. HK-2 cells were cultured with 100 μM BSO and 250 or 500 μM DHMBA, and then the expression levels of genes related to […] were measured by qPCR. Mean±SD (n=4).
(§3) Therefore, in the present invention, the analysis of the expression levels of genes related to cardiolipin biosynthesis, remodeling, and degradation in response to oxidative stress stimulation was verified.
(§4) HK-2 cells were seeded in a 6-well plate at a density of 5.0×10^4 cells/well and cultured for 24 hours.
(§5) Next, under the same stimulus conditions as described above, 2 mL thereof was added to each well. […] The concentration of the purified RNA was quantified by Nanodrop (Invitrogen). […]
(§6) The gene expression levels were measured according to a protocol for THUNDERBIRD (registered trademark) SYBR (registered trademark) qPCR Mix (TOYOBO). Measurements were performed using a CFX Connect™ real-time PCR analysis system (BioRad), and analyzed using a 2^−(ΔΔCT) method.
(§7) The gene expression level of the control group was set at 1 for comparison. The figures are expressed as mean±SD (n=4 for each group). […]
as §1

CDS2 = test: qPCR expression of CL biosynthesis-related gene CDS2 in HK-2 cells under oxidative stress; assay type: cell-based, human; conditions: oxidative stress (100 μM BSO) + DHMBA 250 or 500 μM, 24 h, HK-2, β-actin corrected, control = 1
Description: FIG. 5 is an explanatory drawing for describing changes in expression level of CL biosynthesis-related genes of DHMBA under oxidative stress conditions. HK-2 cells were cultured with 100 μM BSO and 250 or 500 μM DHMBA, and then the expression levels of CL biosynthesis-related genes were measured by qPCR. Mean±SD (n=4).
as §3, §4, §5, §6, §7, §1

Keap1-Nrf2 pathway = conditions: background, to date; cited from earlier work
mitochondria = conditions: under oxidative stress conditions; results so far; cited from earlier work
[2] = background, to date; cited from earlier work
[3] = background; compared with existing antioxidants; cited from earlier work
HADHB = test: qPCR expression of CL remodeling/degradation-related gene HADHB in HK-2 cells under oxidative stress; assay type: cell-based, human; conditions: oxidative stress (100 μM BSO) + DHMBA 250 or 500 μM, 24 h, HK-2, β-actin corrected, control = 1
Description: as §2, §3, §4, §5, §6, §7, §1

[4] = system: antioxidant gene groups (such as HO-1 and NQO1); conditions: background, to date; cited from earlier work

## COc1c(O)cc(CO)cc1O [DHMBA, 3,5-dihydroxy-4-methoxy benzyl alcohol]
[1]; 24 h, HK-2, n=4, vs control group
  Change in cardiolipin molecular species: almost all the cardiolipin molecular species increased significantly
[1]; HK-2, n=4
  Change in saturated fatty acid chain FA16:0 of cardiolipin: decreased
  Change in unsaturated fatty acid chain FA18:1 of cardiolipin: increased
  Change in unsaturated fatty acid chain FA18:2 of cardiolipin: increased
PNPLA8
  PNPLA8 gene expression level: decreased to the same level as the control group
CDS2
  CDS2 gene expression level: decreased to the same level as the control group
Keap1-Nrf2 pathway
  Activation of the Keap1-Nrf2 pathway: confirmed
mitochondria
  Protective effect on mitochondria: protective effect on mitochondria under oxidative stress conditions
[2]
  Radical scavenging ability: confirmed
[3]
  Cytotoxicity: lower cytotoxicity than existing antioxidants
HADHB
  HADHB gene expression level: increased
[4]
  Induction of the expression of antioxidant gene groups (such as HO-1 and NQO1): confirmed
